# How the values were obtained:
# [1] = system: SCID mice grafted with human skin infected with Nm 2C4.3; assay: Outcome of meningococcal infection in SCID mice grafted with human skin (survival, with or without antibiotics); type: in vivo; settings: 200 mg kg-1 cefotaxime
# Procedure: A-D, SCID mice grafted with human skin were infected intravenously with Nm 2C4.3 wild-type strain (5×10^6 bacteria); 2 h after bacterial challenge, mice received recombinant human ANGPTL4 (1 μg, intravenously), cefotaxime (200 mg kg-1, intraperitoneally) alone or in combination with ANGPTL4 or vehicle as a control. 18 h following bacterial challenge, ANGPTL4 (1 μg) and cefotaxime (200 mg kg-1) were re-administered. This experiment was performed twice with n=3 or 4 mice per group, using skin from two different donors. A, A schematic representation of the protocol used in vivo. B, Bacteraemia 4, 18, 48 and 72 h post-infection (mean±s.e.m.). C, Survival curve: * P=0.0275; two-sided log-rank Mantel-Cox survival analysis. D, Thrombosis within the skin grafts at 4 h post-infection was assessed by immunofluorescence analysis and quantified as described in FIG. 8 (error bars show mean±s.e.m.; 40 vessels per mouse were analysed; n=4 mice per group; *** P<0.001; two-tailed Student's t-test.
# Six-week-old CB17/Icr-Prkdcscid female mice were obtained from Janvier Labs. Human skin tissues were obtained from adult patients undergoing plastic surgery in the Service de Chirurgie Plastique et Reconstructive of the Groupe Hospitalier Saint-Joseph. […] Experimental procedures were performed as previously described in accordance with the guidelines of the Institut National de la Santé et de la Recherche Médicale and conformed to the European ethical legislation (Directive 2010/63/EU). The experimental protocol was approved by the Animal Experimentation Ethics Committee of the Université Paris Descartes (consent forms CEEA34.O.J.L.039.12 and 2018012515596498). […] A skin flap was created and a full thickness human skin graft was placed onto the wound bed. The transplants were held in place with 6-0 non-absorbable monofilament suture materials, and the flap was then sutured above the transplant. Grafted mice were infected 4-6 weeks after human skin transplantation. N. meningitidis was grown overnight at 37° C. on GCB agar plates prepared without iron and supplemented with 15 μM deferoxamine (Desferal, Novartis). Bacterial colonies were harvested and cultured in RPMI media with 1% BSA medium and 0.06 μM deferoxamine with gentle agitation to reach the exponential phase of growth. Bacteria were then resuspended in physiological saline solution. Mice were infected intravenously with 200 μl (5×10^6 bacteria) of this bacterial suspension. A 10 mg dose of human holotransferrin (R&D Systems) was administered intraperitoneally just before infection. Mice were killed at 4 h after infection. Human skin grafts were carefully collected using a sterile cutter. The tissue was washed in PBS and fixed overnight at 4° C. in 4% paraformaldehyde in phosphate buffer. After washing in phosphate buffer, the specimens were embedded in OCT medium and then frozen at −80° C. Sections of the dermis (7 μm thick) were immobilized on Superfrost Plus microscope slides and subjected to immunofluorescence analysis. Sections were incubated with the primary antibodies for 1 h in PBS/3% BSA then DAPI was added to Alexa-conjugated secondary antibodies for 1 h. After additional washing, coverslips were mounted in glycergel (Dako) and were further analysed using a slide scanner (Lamina, Perkin Elmer). Analysis of the images was performed using ImageJ software (NIH). […]
# We then analysed whether ANGPTL4 could provide a beneficial effect when administered with antibiotics.
# [2] = system: HDMECs infected with Nm 2C4.3; assay: Integrity of HDMEC monolayers infected with N. meningitidis (VE-cadherin at intercellular junctions, immunofluorescence); type: cell-based, human; settings: 1 μg/mL added 30 min after initiation of Nm infection, 2 h 30
# Procedure: FIG. 1. Exogenous ANGPTL4 exerts protective effects on dermal microvascular endothelial cells infected by N. meningitidis. A. HDMECs were infected with Nm 2C4.3 for 30 min and treated with 1 μg/mL of recombinant human ANGPTL4 for 2 h 30. Cells were fixed and stained for cellular actin, VE-cadherin and DAPI and analyzed by fluorescent microscopy. Quantifications of VE-cadherin enrichment at intercellular junctions and of intercellular spaces area were performed on 30 fields with Image J software. Kruskal-Wallis test ** P<0.001; P<0.0001. B. HDMEC were either uninfected or infected with N. meningitidis 2C4.3 for 30 min and treated with 1 μg mL−1 of recombinant human ANGPTL4, its N-terminal portion (nANGPTL4) or its C-terminal portion (cANGPTL4) for 2 h 30. Caspase-3/7 reagent was added to detect apoptosis in real time over 9 h using the IncuCyte® Live-Cell Analysis System
# FIG. 2: Vascular protection is conferred by the N-terminal part of ANGPTL4. A, Schematic representation of ANGPTL4 structure. ANGPTL4 contains a N-terminal portion (nANGPTL4, aa 26-164) linked to a C-terminal portion (cANGPTL4, aa 164-406) by a cleavable linker. nANGPTL4 contains a highly conserved lipoprotein lipase (LPL) binding domain (aa 44-55), two cysteines on position 76 and 80 involved in protein oligomerization and a coiled-coil domain (aa 100-143). The C-terminal portion encodes a fibrinogen-like domain. B, HDMECs were infected with Nm 2C4.3 for 30 min and treated with 1 μg/mL of recombinant human ANGPTL4, nANGPTL4 or cANGPTL4 for 2 h 30. Cells were fixed and stained for cellular actin, VE-cadherin and DAPI and analyzed by fluorescent microscopy. B. Quantifications of VE-cadherin enrichment at intercellular junctions and of intercellular spaces area were performed on 30 fields with Image J software. Kruskal-Wallis test ** P<0.001, *** P<0.0001 of four independent experiments performed in triplicate.
# FIG. 3: Vascular protection is conferred by a novel binding motif (aa 66-80) present in the N-terminal part of ANGPTL4. A, the indicated peptides were derived from nANGPTL4. B, HDMECs were infected with Nm 2C4.3 for 30 min and treated with 1 μg/mL of each peptides. Quantifications of VE-cadherin enrichment at intercellular junctions was performed on 30 fields with Image J software.
# FIG. 4: Vascular protection is conferred by interaction of nANGPTL4 with Syndecan-4. A, HDMECs were infected with Nm 2C4.3 for 30 min and treated with 1 μg/mL of recombinant human ANGPTL4, nANGPTL4 or cANGPTL4 in the absence or in the presence of anti-SDC4 antibody for 2 h 30. Cells were fixed and stained for cellular actin, VE-cadherin and DAPI and analysed by fluorescent microscopy. Quantifications of VE-cadherin enrichment at intercellular junctions and of intercellular spaces area were performed on 30 fields with Image J software. Kruskal-Wallis test ** P<0.001, **** P<0.00001, ns1 P=0.2172; ns2 P>0.999 of four independent experiments performed in triplicate. B, HDMECs were transfected with small interfering RNA (siRNA) against SDC4 or non-targeting siRNA controls for 48 h, infected with Nm 2C4.3 for 30 min and treated with 1 μg/mL of recombinant human ANGPTL4, for 2 h 30. Quantifications of VE-cadherin enrichment at intercellular junctions and of intercellular spaces area were performed on 30 fields with Image J software. Kruskal-Wallis test ** P<0.001, *** P<0.0001, of two independent experiments performed in triplicate.
# The day of infection, a suspension of the bacteria from an overnight culture on GCB agar plate was adjusted to OD600=0.05 and incubated for 2 h at 37° C. in a pre-warmed cell culture medium. Cells were infected with bacteria at a multiplicity of infection (MOI) of 100 bacteria per cell (OD=0.1) for 30 minutes, washed twice to remove non-adherent bacteria and infection was allowed to proceed for various periods of time. Cells were then washed and fixed in 4% paraformaldehyde for immunofluorescence analysis. […]
# [3] = system: Balb/c mice challenged with LPS; assay: LPS-induced endotoxemia (sepsis) in mice; type: in vivo; settings: LPS 5 mg kg-1 i.p.; 2 μg/mouse i.v.
# Procedure: FIG. 9: ANGPTL4 protects against LPS-induced endotoxemia by preventing vascular dysfunction and organ failure. A-B, Balb/c mice received LPS (5 mg kg-1, i.p.); 30 min after LPS challenge, mice received recombinant human ANGPTL4 (2 μg, intravenously), or vehicle as a control. A, A schematic representation of the protocol used. B, Survival curve (n=16 mice per group): **** P<0.0001; two-sided log-rank Mantel-Cox survival analysis. C,D, Balb/c mice received LPS (5 mg kg-1, i.p.); 30 min after LPS challenge, mice received nANGPTL4 (2 μg, intravenously), or vehicle as a control. C, A schematic representation of the protocol used. D, Survival curve (n=6 mice per group): ** P=0.0033; two-sided log-rank Mantel-Cox survival analysis. E, F, Balb/c mice received LPS (5 mg kg-1, i.p.); 30 min after LPS challenge, mice received Peptide 1 (2 μg, intravenously), or vehicle as a control. E, A schematic representation of the protocol used. F, Survival curve (n=6 mice per group): * P=0.0163; two-sided log-rank Mantel-Cox survival analysis. G, Balb/c mice received LPS (5 mg kg-1. i.p.): 30 min after LPS challenge, mice received recombinant human peptide P9 (2 μg. intravenously). or vehicle as a control. Survival curves (n=6 mice per group). *** P<0.001: two-sided log-rank Mantel-Cox survival analysis. H. Balb/c mice received LPS (4 mg kg-1. i.p.) together with anti-ANGPTL4 blocking antibody (10 μg kg-1. i.v) or vehicle as a control. 18 h after LPS challenge. mice were perfused with Evans blue for 1 h. were killed and brain were extracted. Quantification analysis of Evans blue extravasation (n=4 mice per group). Bars and error bars show the mean±s.e.m., respectively, from two independent experiments: *** P<0.001: NS, not significant (P>0.05) one-way ANOVA Tukey's multiple comparison test.
# Female BALB/c mice, obtained from Janvier Labs, 9-10 weeks of age, were administered LPS at 5 mg/kg intraperitoneally and survival was monitored for 72 h (n=12 per group). BALB/c mice were randomly divided into 2 groups: LPS and LPS+Angptl4. Angptl4 (2 μg/mice) or vehicle (physiological saline solution) was administered intravenously 30 min after LPS challenge. In some experiments, blood serum, kidney and lung were collected at 18 h post-LPS challenge. Kidney and lungs were fixed in 4% PFA, embedded in paraffin, and 5-μm sections were cut from each block and stained with H&E. The stained sections were observed and acquired using a slide scanner (Lamina, Perkin Elmer). Analysis of the images was performed using ImageJ software (NIH).
# Since severe endothelial dysfunction, leading to dysregulation of hemostasis and vascular dysfunction, is central to the progression to organ failure during sepsis, we analysed whether ANGPTL4 could play a protective role in sepsis, using a lipopolysaccharide (LPS)-induced endotoxemia (FIG. 9A). After LPS-challenge (5 mg kg-1, i.p.), all mice died within two days (FIG. 9B).
Molecule,bactericidal effect (bacteraemia) [1],mice survival [1],thrombosis at 4 h post-infection [1],"protective effect on monolayer integrity (adherens junctions, cell detachment) of infected HDMECs [2]",sepsis-associated mortality / survival rate [3]
CO/N=C(\C(=O)N[C@@H]1C(=O)N2C(C(=O)O)=C(COC(C)=O)CS[C@H]12)c1csc(N)n1 [cefotaxime],strong bactericidal effect,associated with mice survival,did not prevent the triggering of thrombosis,,
LSALERRLSACGSAC (Peptide P9),,,,completely inhibited infection-induced damages,reduced sepsis-associated mortality rate as efficiently as the full-length protein
SALERRLSACGS (Peptide P10),,,,no effect,did not significantly increased the survival rate
WDEMNVLAHGLLQLGQGLREHAERTRSQLSALERRLSACGSACQGT (Peptide P1),,,,sufficient to prevent loss of adherens junctions and cell detachment induced by infection as efficiently as the full-length protein,reduced sepsis-associated mortality rate as efficiently as the full-length protein

# — patent publication US20250163116A1, “NEW METHOD TO TREAT INFECTIOUS DISEASES” (INSERM (INSTITUT NATIONAL DE LA SANTÉ ET DE LA RECHERCHE …, priority 2022, published 2025)
